# From article doi:10.1101/2021.04.08.439011v1 (biorxiv, 2021)
# What was measured:
# Conditions in all cases: 0.1 µM; binder
# PHKG1 = PHKG1 (Homo sapiens, UniProt Q16816)
# PLK2 = PLK2 (Homo sapiens, UniProt Q9NYY3)
# SNRK = SNRK (Homo sapiens, UniProt Q9NRH2)
# PCTK3 = PCTK3 (Homo sapiens, UniProt Q07002)
# NEK10 = NEK10 (Homo sapiens, UniProt Q6ZWH5)
# TRPM6 = TRPM6 (Homo sapiens, UniProt Q9BX84)
# MYLK4 = MYLK4 (Homo sapiens, UniProt Q86YV6)
# NDR2 = NDR2 (Homo sapiens, UniProt Q9Y2H1)
# TRKA = TRKA (Homo sapiens, UniProt P04629)
# PIP5K1C = PIP5K1C (Homo sapiens, UniProt O60331)
# NIK = NIK (Homo sapiens, UniProt Q99558)
# GRK4 = GRK4 (Homo sapiens, UniProt P32298)
# EIF2AK1 = EIF2AK1 (Homo sapiens, UniProt Q9BQI3)
# FGFR4 = FGFR4 (Homo sapiens, UniProt P22455)
# EPHA4 = EPHA4 (Homo sapiens, UniProt P54764)
# MEK5 = MEK5 (Homo sapiens, UniProt Q13163)
# MLK2 = MLK2 (Homo sapiens, UniProt Q02779)
# STK4 = STK4 (Homo sapiens, UniProt Q13043)
# HCK = HCK (Homo sapiens, UniProt P08631)
# MATK = MATK (Homo sapiens, UniProt P42679)
# ERK8 = ERK8 (Homo sapiens, UniProt Q8TD08)
# PRKR = PRKR (Homo sapiens, UniProt P19525)
# NEK4 = NEK4 (Homo sapiens, UniProt P51957)
# PIK3CA = PIK3CA (Homo sapiens, UniProt P42336)
# EPHA5 = EPHA5 (Homo sapiens, UniProt P54756)
# PKAC-alpha = PKAC-alpha (Homo sapiens, UniProt P17612)
# S6K1 = S6K1 (Homo sapiens, UniProt P23443)
# DYRK2 = DYRK2 (Homo sapiens, UniProt Q92630)
# CDKL3 = CDKL3 (Homo sapiens, UniProt Q8IVW4)
# PRKD3 = PRKD3 (Homo sapiens, UniProt O94806)
# PIK3CG = PIK3CG (Homo sapiens, UniProt P48736)
# CDK9 = CDK9 (Homo sapiens, UniProt P50750)
# NEK10, sequence (Q6ZWH5 whole entry): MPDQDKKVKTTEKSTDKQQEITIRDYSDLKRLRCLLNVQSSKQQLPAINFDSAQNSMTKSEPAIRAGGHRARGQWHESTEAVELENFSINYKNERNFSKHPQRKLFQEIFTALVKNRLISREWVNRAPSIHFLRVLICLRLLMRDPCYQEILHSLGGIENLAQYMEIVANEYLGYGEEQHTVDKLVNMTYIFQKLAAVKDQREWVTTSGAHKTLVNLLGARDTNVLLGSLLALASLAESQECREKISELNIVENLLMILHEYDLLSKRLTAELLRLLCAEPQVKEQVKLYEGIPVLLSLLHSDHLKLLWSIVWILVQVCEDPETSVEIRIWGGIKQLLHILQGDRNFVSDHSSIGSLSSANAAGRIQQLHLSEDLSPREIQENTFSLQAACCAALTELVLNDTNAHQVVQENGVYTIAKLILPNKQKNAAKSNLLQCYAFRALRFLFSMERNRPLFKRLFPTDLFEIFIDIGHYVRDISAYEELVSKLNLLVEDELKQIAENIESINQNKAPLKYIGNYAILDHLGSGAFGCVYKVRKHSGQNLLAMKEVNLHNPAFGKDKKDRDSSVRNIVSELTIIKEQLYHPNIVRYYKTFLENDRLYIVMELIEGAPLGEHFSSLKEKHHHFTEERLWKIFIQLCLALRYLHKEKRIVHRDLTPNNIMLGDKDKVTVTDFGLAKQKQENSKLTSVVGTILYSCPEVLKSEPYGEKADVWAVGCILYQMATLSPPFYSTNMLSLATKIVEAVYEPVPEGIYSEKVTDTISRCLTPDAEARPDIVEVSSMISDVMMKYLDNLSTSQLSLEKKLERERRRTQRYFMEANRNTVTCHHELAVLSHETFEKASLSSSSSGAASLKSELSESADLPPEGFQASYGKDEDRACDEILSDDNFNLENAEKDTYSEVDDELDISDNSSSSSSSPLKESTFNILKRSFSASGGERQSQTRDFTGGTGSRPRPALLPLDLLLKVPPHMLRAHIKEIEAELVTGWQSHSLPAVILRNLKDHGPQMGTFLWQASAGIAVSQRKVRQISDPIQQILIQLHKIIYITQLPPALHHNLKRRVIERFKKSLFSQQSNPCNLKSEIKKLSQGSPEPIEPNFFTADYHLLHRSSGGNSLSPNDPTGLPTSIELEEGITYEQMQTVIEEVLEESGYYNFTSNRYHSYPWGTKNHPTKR
# PLK2, sequence (Q9NYY3 whole entry): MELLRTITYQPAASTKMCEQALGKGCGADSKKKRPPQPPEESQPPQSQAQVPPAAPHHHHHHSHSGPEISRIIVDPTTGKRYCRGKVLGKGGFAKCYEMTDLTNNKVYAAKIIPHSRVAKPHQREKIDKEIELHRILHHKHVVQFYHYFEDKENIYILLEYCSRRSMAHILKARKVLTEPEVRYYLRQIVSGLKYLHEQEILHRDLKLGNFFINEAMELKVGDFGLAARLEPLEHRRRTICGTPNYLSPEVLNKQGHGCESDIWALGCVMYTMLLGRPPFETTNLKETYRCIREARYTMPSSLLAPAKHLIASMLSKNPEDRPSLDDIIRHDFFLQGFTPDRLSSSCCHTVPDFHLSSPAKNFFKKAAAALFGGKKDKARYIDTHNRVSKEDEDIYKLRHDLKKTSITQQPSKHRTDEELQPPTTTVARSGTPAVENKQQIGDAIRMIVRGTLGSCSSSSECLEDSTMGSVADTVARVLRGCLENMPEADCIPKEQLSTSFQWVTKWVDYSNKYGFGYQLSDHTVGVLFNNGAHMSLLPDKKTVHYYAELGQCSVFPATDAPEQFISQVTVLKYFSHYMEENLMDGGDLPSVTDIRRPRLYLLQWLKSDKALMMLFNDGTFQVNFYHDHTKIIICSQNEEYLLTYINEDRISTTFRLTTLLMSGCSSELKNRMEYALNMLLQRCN
# NDR2, sequence (Q9Y2H1 whole entry): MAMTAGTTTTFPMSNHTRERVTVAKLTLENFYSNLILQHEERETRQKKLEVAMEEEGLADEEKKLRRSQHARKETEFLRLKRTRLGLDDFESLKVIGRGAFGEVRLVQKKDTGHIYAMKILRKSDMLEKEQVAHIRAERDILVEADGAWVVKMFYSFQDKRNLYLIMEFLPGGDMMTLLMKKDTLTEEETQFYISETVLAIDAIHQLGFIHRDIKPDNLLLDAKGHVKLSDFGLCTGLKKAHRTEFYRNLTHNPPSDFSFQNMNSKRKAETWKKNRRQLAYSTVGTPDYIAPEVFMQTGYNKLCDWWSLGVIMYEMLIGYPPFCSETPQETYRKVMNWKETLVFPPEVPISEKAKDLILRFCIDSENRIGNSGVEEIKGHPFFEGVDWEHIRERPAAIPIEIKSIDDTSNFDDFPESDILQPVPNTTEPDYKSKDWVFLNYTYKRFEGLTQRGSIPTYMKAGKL
# DYRK2, sequence (Q92630 whole entry): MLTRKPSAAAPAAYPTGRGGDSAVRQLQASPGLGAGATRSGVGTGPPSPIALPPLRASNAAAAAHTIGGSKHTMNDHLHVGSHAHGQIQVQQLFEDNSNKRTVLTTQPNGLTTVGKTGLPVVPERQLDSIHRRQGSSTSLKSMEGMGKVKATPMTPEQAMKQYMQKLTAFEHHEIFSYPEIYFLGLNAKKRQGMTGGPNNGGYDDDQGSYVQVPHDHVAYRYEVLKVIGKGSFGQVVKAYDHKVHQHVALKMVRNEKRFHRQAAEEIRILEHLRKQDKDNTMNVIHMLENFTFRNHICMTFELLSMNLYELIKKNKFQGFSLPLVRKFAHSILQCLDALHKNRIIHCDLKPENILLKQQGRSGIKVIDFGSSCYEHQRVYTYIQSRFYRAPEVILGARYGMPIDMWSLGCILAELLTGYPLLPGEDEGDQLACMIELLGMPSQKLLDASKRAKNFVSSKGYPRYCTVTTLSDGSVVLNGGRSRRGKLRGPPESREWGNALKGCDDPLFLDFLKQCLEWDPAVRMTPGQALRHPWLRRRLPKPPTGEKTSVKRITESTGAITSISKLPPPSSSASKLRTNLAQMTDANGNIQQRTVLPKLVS
# PHKG1, sequence (Q16816 whole entry): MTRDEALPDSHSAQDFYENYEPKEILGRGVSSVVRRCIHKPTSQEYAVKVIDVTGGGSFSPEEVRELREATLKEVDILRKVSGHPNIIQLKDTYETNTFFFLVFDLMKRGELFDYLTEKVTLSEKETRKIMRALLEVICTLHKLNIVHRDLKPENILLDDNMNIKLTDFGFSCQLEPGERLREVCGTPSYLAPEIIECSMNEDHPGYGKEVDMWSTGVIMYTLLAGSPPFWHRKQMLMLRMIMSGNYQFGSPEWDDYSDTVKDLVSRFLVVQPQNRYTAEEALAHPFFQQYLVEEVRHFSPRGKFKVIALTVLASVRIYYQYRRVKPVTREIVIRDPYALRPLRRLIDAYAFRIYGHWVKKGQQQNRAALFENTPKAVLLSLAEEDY
# PIK3CG, sequence (P48736 whole entry): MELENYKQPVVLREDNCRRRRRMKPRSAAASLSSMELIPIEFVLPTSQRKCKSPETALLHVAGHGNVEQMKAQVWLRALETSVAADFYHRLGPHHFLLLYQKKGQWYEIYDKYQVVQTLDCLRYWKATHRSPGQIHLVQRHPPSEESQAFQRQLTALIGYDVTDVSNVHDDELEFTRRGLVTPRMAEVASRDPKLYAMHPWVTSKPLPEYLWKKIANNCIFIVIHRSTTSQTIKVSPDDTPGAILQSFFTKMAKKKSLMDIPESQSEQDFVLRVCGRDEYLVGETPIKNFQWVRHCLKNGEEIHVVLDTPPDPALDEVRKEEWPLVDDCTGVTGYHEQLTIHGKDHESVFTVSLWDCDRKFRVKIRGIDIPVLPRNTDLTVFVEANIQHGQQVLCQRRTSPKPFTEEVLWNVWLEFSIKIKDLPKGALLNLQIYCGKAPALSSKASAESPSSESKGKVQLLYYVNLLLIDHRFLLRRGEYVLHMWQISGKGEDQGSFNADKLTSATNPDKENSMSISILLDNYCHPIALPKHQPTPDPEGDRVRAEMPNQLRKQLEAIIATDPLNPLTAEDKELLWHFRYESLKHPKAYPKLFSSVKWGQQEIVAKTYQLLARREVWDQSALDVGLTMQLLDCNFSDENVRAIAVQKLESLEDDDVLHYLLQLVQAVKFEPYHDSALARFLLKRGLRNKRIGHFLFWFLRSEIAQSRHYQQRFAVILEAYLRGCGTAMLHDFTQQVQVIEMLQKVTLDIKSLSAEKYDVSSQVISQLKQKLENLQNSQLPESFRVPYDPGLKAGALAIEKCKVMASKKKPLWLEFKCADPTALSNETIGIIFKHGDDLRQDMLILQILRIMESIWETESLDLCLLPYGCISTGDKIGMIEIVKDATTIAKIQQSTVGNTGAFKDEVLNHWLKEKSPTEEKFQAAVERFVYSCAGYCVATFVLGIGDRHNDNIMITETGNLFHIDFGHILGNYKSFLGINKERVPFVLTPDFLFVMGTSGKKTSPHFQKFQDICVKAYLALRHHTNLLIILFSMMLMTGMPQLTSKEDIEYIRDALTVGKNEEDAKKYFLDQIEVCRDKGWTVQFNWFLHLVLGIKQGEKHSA
# PCTK3, sequence (Q07002 whole entry): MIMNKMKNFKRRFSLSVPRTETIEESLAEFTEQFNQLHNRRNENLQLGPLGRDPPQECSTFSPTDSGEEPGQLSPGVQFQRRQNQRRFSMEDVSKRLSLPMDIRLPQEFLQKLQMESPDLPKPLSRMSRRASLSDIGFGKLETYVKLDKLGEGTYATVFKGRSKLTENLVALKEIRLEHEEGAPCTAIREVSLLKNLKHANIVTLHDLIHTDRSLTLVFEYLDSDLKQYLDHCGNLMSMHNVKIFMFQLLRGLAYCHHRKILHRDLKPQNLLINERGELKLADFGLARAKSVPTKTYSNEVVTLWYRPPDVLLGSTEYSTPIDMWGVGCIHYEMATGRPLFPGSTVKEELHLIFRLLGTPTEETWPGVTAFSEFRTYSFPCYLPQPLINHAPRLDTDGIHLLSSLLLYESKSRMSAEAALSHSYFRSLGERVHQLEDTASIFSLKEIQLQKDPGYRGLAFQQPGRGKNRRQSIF
smiles,measurement,setting,value
"CNc1ncc2cc(-c3ccc(-c4cccc(C)n4)cc3Cl)c(=O)n(C[C@H]3OC[C@H](N)CO3)c2n1 [compound 6, G-5555]",Percent Control,PHKG1,100%
same,Percent Control,PLK2,75%
same,Percent Control,SNRK,84%
same,Percent Control,PCTK3,100%
same,Percent Control,NEK10,91%
same,Percent Control,TRPM6,100%
same,Percent Control,MYLK4,100%
same,Percent Control,NDR2,100%
same,Percent Control,TRKA,77%
same,Percent Control,PIP5K1C,100%
same,Percent Control,NIK,100%
same,Percent Control,GRK4,100%
same,Percent Control,EIF2AK1,97%
same,Percent Control,FGFR4,100%
same,Percent Control,EPHA4,100%
same,Percent Control,MEK5,13%
same,Percent Control,MLK2,100%
same,Percent Control,STK4,90%
same,Percent Control,HCK,100%
same,Percent Control,MATK,100%
same,Percent Control,ERK8,100%
same,Percent Control,PRKR,100%
same,Percent Control,NEK4,100%
same,Percent Control,PIK3CA,94%
same,Percent Control,EPHA5,100%
same,Percent Control,PKAC-alpha,100%
same,Percent Control,S6K1,92%
same,Percent Control,DYRK2,100%
same,Percent Control,CDKL3,89%
same,Percent Control,PRKD3,95%
same,Percent Control,PIK3CG,87%
same,Percent Control,CDK9,100%
